Assay results as given in the NIST ThermoML archive (doi:10.1016/j.tca.2006.04.016).

Experiment: xn = mol fraction of the nth substance listed
Settings: 101 kPa, Liquid, Vibrating tube method

CN(C)CCCN [N,N-dimethyl-1,3-propanediamine] + O
mass density [kg/m3]
Settings	318.15 K	323.15 K	328.15 K
x2 = 0	–	790.41	785.91
x2 = 0.0403	–	793.5	789
x2 = 0.0811	–	796.65	792.14
x2 = 0.1198	–	799.82	795.31
x2 = 0.16	–	803.3	798.79
x2 = 0.1996	–	806.9	802.39
x2 = 0.2498	–	811.82	807.31
x2 = 0.2998	–	817.12	812.62
x2 = 0.3499	–	822.81	818.31
x2 = 0.3997	–	829.08	–
x2 = 0.4501	–	836.03	–
x2 = 0.4998	–	843.68	–
x2 = 0.5501	–	852.33	–
x2 = 0.5999	866.35	861.89	–
x2 = 0.6498	877.08	872.61	–
x2 = 0.7	889.3	884.83	–
x2 = 0.7499	902.82	898.36	–
x2 = 0.8	917.71	913.29	–
x2 = 0.84	930.55	926.21	–
x2 = 0.8799	943.86	939.69	–
x2 = 0.9	950.58	946.58	–
x2 = 0.92	957.27	953.52	–
x2 = 0.94	963.99	960.6	–
x2 = 0.9597	970.89	967.94	–
x2 = 0.975	976.98	974.39	–
x2 = 0.99	984.22	981.91	–
